Laboratory results reported in PubChem BioAssay AID2060615 (Molecular Pharmacology Branch, DTP, NCI, 2025).
Where “and” joins values, the source holds several entries; their conditions need not be identical. Identical values can stand only once.

System: 496974-208-R-J2-PDC complex spheroids, growth % test/control
Test: Anticancer human tumor 496974-208-R-J2-PDC patient-derived pancreatic carcinoma cell line growth inhibition [CLK]
Conditions: for viability, T/C: stronger effect = lower value
In short: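 Patient-derived tumor cells grown as complex spheroids with HUVEC endothelial cells and mesenchymal stem cells, treated with drug combinations. Concentrations descend in half-log steps from near clinical Cmax, or from 10 microM if Cmax unknown.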

[1] = curve of first compound, second compound 0.0316 µM
[2] = curve of first compound, second compound 0.1 µM
[3] = curve of first compound, second compound 0.316 µM
[4] = curve of first compound, second compound 1 µM
[5] = curve of first compound, second compound 3.16 µM
[6] = curve of first compound, second compound 10 µM
[7] = second compound 0.0316 µM, first compound 0.0316 µM
[8] = second compound 0.0316 µM, first compound 0.1 µM
[9] = second compound 0.0316 µM, first compound 0.316 µM
[10] = second compound 0.0316 µM, first compound 1 µM
[11] = second compound 0.0316 µM, first compound 3.16 µM
[12] = second compound 0.0316 µM, first compound 10 µM
[13] = second compound 0.1 µM, first compound 0.0316 µM
[14] = second compound 0.1 µM, first compound 0.1 µM
[15] = second compound 0.1 µM, first compound 0.316 µM
[16] = second compound 0.1 µM, first compound 1 µM
[17] = second compound 0.1 µM, first compound 3.16 µM
[18] = second compound 0.1 µM, first compound 10 µM
[19] = second compound 0.316 µM, first compound 0.0316 µM
[20] = second compound 0.316 µM, first compound 0.1 µM
[21] = second compound 0.316 µM, first compound 0.316 µM
[22] = second compound 0.316 µM, first compound 1 µM
[23] = second compound 0.316 µM, first compound 3.16 µM
[24] = second compound 0.316 µM, first compound 10 µM
[25] = second compound 1 µM, first compound 0.0316 µM
[26] = second compound 1 µM, first compound 0.1 µM
[27] = second compound 1 µM, first compound 0.316 µM
[28] = second compound 1 µM, first compound 1 µM
[29] = second compound 1 µM, first compound 3.16 µM
[30] = second compound 1 µM, first compound 10 µM
[31] = second compound 3.16 µM, first compound 0.0316 µM
[32] = second compound 3.16 µM, first compound 0.1 µM
[33] = second compound 3.16 µM, first compound 0.316 µM
[34] = second compound 3.16 µM, first compound 1 µM
[35] = second compound 3.16 µM, first compound 3.16 µM
[36] = second compound 3.16 µM, first compound 10 µM
[37] = second compound 10 µM, first compound 0.0316 µM
[38] = second compound 10 µM, first compound 0.1 µM
[39] = second compound 10 µM, first compound 0.316 µM
[40] = second compound 10 µM, first compound 1 µM
[41] = second compound 10 µM, first compound 3.16 µM
[42] = second compound 10 µM, first compound 10 µM
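Also: spheroids exposed to the drugs for 7 days before readout.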
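For viability, T/C in this document: 100% = DMSO vehicle control wells.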

Compound: CC(CO)NC(=O)c1cc(-c2ccc(Cl)cc2)nn(-c2cnn(C)c2)c1=O (configuration not stated) + CNC(=O)c1ccc(Nc2nc(OC3CCCC3)c3c(-c4ccc5nc(C)oc5c4)c[nH]c3n2)c(OC)c1
- IC50 [1]: > 10 µM
- IC50 [2]: 6.65 µM
- IC50 [3]: 6.97 µM
- IC50 [4]: 3.29 µM
- IC50 [5]: 5.16 µM
- IC50 [6]: 4.14 µM
- viability, T/C [7]: 103%
- viability, T/C [8]: 91.4%
- viability, T/C [9]: 92.8%
- viability, T/C [10]: 90.4%
- viability, T/C [11]: 89.1%
- viability, T/C [12]: 55%
- viability, T/C [13]: 87.3%
- viability, T/C [14]: 74.5%
- viability, T/C [15]: 80.8%
- viability, T/C [16]: 63.1%
- viability, T/C [17]: 65.4%
- viability, T/C [18]: 42.6%
- viability, T/C [19]: 79.2%
- viability, T/C [20]: 67.3%
- viability, T/C [21]: 72.6%
- viability, T/C [22]: 69%
- viability, T/C [23]: 59.4%
- viability, T/C [24]: 44.9%
- viability, T/C [25]: 71%
- viability, T/C [26]: 71.8%
- viability, T/C [27]: 63.5%
- viability, T/C [28]: 59.7%
- viability, T/C [29]: 50.9%
- viability, T/C [30]: 37.9%
- viability, T/C [31]: 62.4%
- viability, T/C [32]: 57.9%
- viability, T/C [33]: 52%
- viability, T/C [34]: 58.4%
- viability, T/C [35]: 56.6%
- viability, T/C [36]: 41.1%
- viability, T/C [37]: 55.5%
- viability, T/C [38]: 54.8%
- viability, T/C [39]: 49.8%
- viability, T/C [40]: 47.1%
- viability, T/C [41]: 56.5%
- viability, T/C [42]: 41%

Compound: COc1cccc2c1C(=O)c1c(O)c3c(c(O)c1C2=O)CC(O)(C(=O)CO)CC3OC1CC(N)C(O)C(C)O1 (configuration not stated)
- viability, T/C (compound 0.0316 µM): 73.2% and 85.7%
- viability, T/C (compound 0.1 µM): 53.8% and 61.2%
- viability, T/C (compound 0.316 µM): 26% and 39.9%
- viability, T/C (compound 1 µM): 2.82% and 3.77%
- viability, T/C (compound 3.16 µM): 0.71% and 0.67%
- viability, T/C (compound 10 µM): 1.39% and 0.57%
- IC50 (curve of compound): 0.121 µM and 0.177 µM

Compound: CN1CCN(c2cc(C(=O)Nc3cc4cc(-c5cnn(C)c5)ccc4cn3)ccn2)CC1
- viability, T/C (compound 0.0316 µM): 103% [middle of 12 runs]
- viability, T/C (compound 0.1 µM): 87.9% [middle of 12 runs]
- viability, T/C (compound 0.316 µM): 6.96% [middle of 11 runs]
- viability, T/C (compound 1 µM): 1.74% [middle of 12 runs]
- viability, T/C (compound 3.16 µM): 0.79% [middle of 12 runs]
- viability, T/C (compound 10 µM): 0.34% [middle of 8 runs]
- IC50 (compound alone, run of 09/18/2023): 171 nM [middle of 11 runs]

Compound: CC1COCCN1c1cc(C2(S(C)(=N)=O)CC2)nc(-c2ccnc3[nH]ccc23)n1 (configuration not stated)
- viability, T/C (compound 0.0316 µM): 119% and 107%
- viability, T/C (compound 0.1 µM): 105% and 97.9%
- viability, T/C (compound 0.316 µM): 85.5% and 91%
- viability, T/C (compound 1 µM): 94.4% and 89.3%
- viability, T/C (compound 3.16 µM): 57.5% and 62%
- viability, T/C (compound 10 µM): 36% and 44.6%
- IC50 (curve of compound): 5.36 µM and 7.19 µM

Compound: C=C(F)C(=O)N1CCN(c2nc(OCC3CCCN3C)nc3c2CCN(c2cccc4cccc(Cl)c24)C3)CC1CC#N (configuration not stated) + CNC(=O)c1ccc(Nc2nc(OC3CCCC3)c3c(-c4ccc5nc(C)oc5c4)c[nH]c3n2)c(OC)c1
- IC50 [1]: 5.46 µM
- IC50 [2]: 4.52 µM
- IC50 [3]: 4.15 µM
- IC50 [4]: 2.74 µM
- IC50 [5]: 2.32 µM
- IC50 [6]: 0.549 µM
- viability, T/C [7]: 89%
- viability, T/C [8]: 91.7%
- viability, T/C [9]: 90.5%
- viability, T/C [10]: 90.6%
- viability, T/C [11]: 91.4%
- viability, T/C [12]: 4.85%
- viability, T/C [13]: 79.2%
- viability, T/C [14]: 73.6%
- viability, T/C [15]: 72.9%
- viability, T/C [16]: 76.1%
- viability, T/C [17]: 71.7%
- viability, T/C [18]: 1.82%
- viability, T/C [19]: 80.4%
- viability, T/C [20]: 72.9%
- viability, T/C [21]: 73.5%
- viability, T/C [22]: 76.2%
- viability, T/C [23]: 63.8%
- viability, T/C [24]: 5.04%
- viability, T/C [25]: 69.5%
- viability, T/C [26]: 68.5%
- viability, T/C [27]: 64.7%
- viability, T/C [28]: 64.8%
- viability, T/C [29]: 47.9%
- viability, T/C [30]: 0.69%
- viability, T/C [31]: 59.8%
- viability, T/C [32]: 59.4%
- viability, T/C [33]: 55.8%
- viability, T/C [34]: 56.9%
- viability, T/C [35]: 47.5%
- viability, T/C [36]: 1.05%
- viability, T/C [37]: 56.4%
- viability, T/C [38]: 52.2%
- viability, T/C [39]: 48.4%
- viability, T/C [40]: 45.4%
- viability, T/C [41]: 39.8%
- viability, T/C [42]: 1.59%

Compound: O=c1[nH]cc(F)c(=O)[nH]1 + CNC(=O)c1ccc(Nc2nc(OC3CCCC3)c3c(-c4ccc5nc(C)oc5c4)c[nH]c3n2)c(OC)c1
- IC50 [1]: > 10 µM
- IC50 [2]: > 10 µM
- IC50 [3]: > 10 µM
- IC50 [4]: 6.38 µM
- IC50 [5]: > 10 µM
- IC50 [6]: 1.21 µM
- viability, T/C [7]: 102%
- viability, T/C [8]: 88.6%
- viability, T/C [9]: 92.7%
- viability, T/C [10]: 85.3%
- viability, T/C [11]: 72.2%
- viability, T/C [12]: 61.8%
- viability, T/C [13]: 74.8%
- viability, T/C [14]: 83.1%
- viability, T/C [15]: 76.2%
- viability, T/C [16]: 81.8%
- viability, T/C [17]: 70.7%
- viability, T/C [18]: 58.7%
- viability, T/C [19]: 78.5%
- viability, T/C [20]: 76.4%
- viability, T/C [21]: 68.2%
- viability, T/C [22]: 70.4%
- viability, T/C [23]: 67.1%
- viability, T/C [24]: 54.6%
- viability, T/C [25]: 73.7%
- viability, T/C [26]: 67.3%
- viability, T/C [27]: 71.5%
- viability, T/C [28]: 69%
- viability, T/C [29]: 56.9%
- viability, T/C [30]: 45.6%
- viability, T/C [31]: 63.5%
- viability, T/C [32]: 58.6%
- viability, T/C [33]: 64%
- viability, T/C [34]: 54%
- viability, T/C [35]: 55.2%
- viability, T/C [36]: 48.5%
- viability, T/C [37]: 51.8%
- viability, T/C [38]: 58.5%
- viability, T/C [39]: 54.2%
- viability, T/C [40]: 51.8%
- viability, T/C [41]: 41.3%
- viability, T/C [42]: 39%
